{
  "source": "patent US20190117574A1",
  "about": "“SURFACE-MODIFIED MICROSPHERE COMPOSITION, APPLICATION OF THE SAME, AND METHOD OF PREPARING THE SAME” (INSTITUTE OF NUCLEAR ENERGY RESEARCH, ATOMIC ENERGY …, priority 2017, published 2019)",
  "system": "mice with FCA-induced arthritis",
  "assay": "Treatment of mice with FCA-induced arthritis: ankle joint diameter",
  "type": "in vivo, mice (C57BL/6)",
  "conditions": "10 mg/kg/ml, subdermal injection around right tibiotarsal joint on day 21 after FCA, FIG. 8",
  "procedure": "Animal Model Created with Arthritis Induced by Freund's Complete Adjuvant (FCA) 24 male mice (C57BL/6, purchased from the National Laboratory Animal Center, Taipei, Taiwan) weighing 20-25 g (8 weeks old) are provided. The mice are each given a subdermal injection of 0.1 ml of FCA at the tibiotarsal joint of the right hind leg and 0.05 ml of FCA on the subplantar side of the right hind paw to induce the development of arthritis. Afterward, thermal images are taken of the mice with a thermal imaging camera on day 0, day 3, and day 14 after injected with FCA, respectively. The diameters of ankle joints of left and right hind legs of the mice are measured with a vernier caliper are surveyed and recorded for 2 or 3 days. The mice with FCA-induced arthritis are administered with a neutrophil elastase 680 FAST probe through trail veins on day 21 and observed with IVIS (non-invasion in vivo imaging system) to confirm whether neutrophil elastase is produced at the location where FCA is injected.\nThe animal model created with FCA-induced arthritis is described above. 24 mice which conform to the animal model created with FCA-induced arthritis are provided. […]\nUpon completion of the subdermal injection of the reagents into the four groups of mice, the diameters of left and right ankle joints and body weight of the mice are measured with a vernier caliper and recorded for 2 or 3 days.",
  "data": [
    {"smiles": "O=C(O)Cc1ccccc1Nc1c(Cl)cccc1Cl", "note": "[free diclofenac sodium, diclofenac sodium]", "values": [
      {"measurement": "reduction of swelling of ankles (ankle joint diameter) compared with saline", "result": "more effective than saline in reducing the swelling of the mice's ankles"}
    ]}
  ]
}
